Measured values published in ChEMBL document CHEMBL1137166, “A unidirectional crosslinking strategy for HIV-1 protease dimerization inhibitors” (Bioorg Med Chem Lett, 2004).
Where a SMILES comes first, the peptide text is derived from it. [ ]: non-standard residue; d: D form. The star is where a group is joined. ξ: configuration not given here. Tyr(3-NO2) = N[C@@H](Cc1ccc(O)c([N+](=O)[O-])c1)C(=O)O; C16 diacid = O=C(O)CCCCCCCCCCCCCCC(=O)*; 1Nal = N[C@@H](Cc1cccc2ccccc12)C(=O)O; Cha = N[C@@H](CC1CCCCC1)C(=O)O; Ile(3ξ) = CCC(C)[C@H](N)C(=O)O; aThr = C[C@H](O)[C@H](N)C(=O)O; Fumaroyl = O=C(O)/C=C/C(=O)*; 12Ado = NCCCCCCCCCCCC(=O)O

Assays:
[1] = target: T1, Human immunodeficiency virus type 1 protease (Human immunodeficiency virus 1, UniProt Q72874); assay: Inhibitory activity against Human immunodeficiency virus-1 protease
[2] = target: T1, Human immunodeficiency virus type 1 protease; assay: Binding activity towards Human immunodeficiency virus-1 protease
[3] = target: Human immunodeficiency virus type 1 protease (Human immunodeficiency virus 1) (UniProt Q72874); assay: Percent inhibition against Human immunodeficiency virus-1 protease at the concentration of 100 uM

IC50 [1] [µM]	Ki [2] [µM]	inhibition [3] [%]	SMILES
327	199		CCC(C)[C@H](NC(=O)CCCCCCCCCCCNC(=O)[C@H](Cc1ccc(O)c([N+](=O)[O-])c1)NC(=O)[C@H](CC1CCCCC1)NC(=O)/C=C/C(=O)O)C(=O)N[C@@H](Cc1ccccc1)C(N)=O (stereo partly drawn) (Fumaroyl-[Cha][Tyr(3-NO2)][12Ado][Ile(3ξ)]F-NH2)
16.8			CCC(C)[C@H](NC(=O)CCCCCCCCCCCNC(=O)CNC(=O)[C@@H](CC(N)=O)NC(=O)[C@H](Cc1ccccc1)NC(=O)/C=C/C(=O)O)C(=O)N[C@@H](Cc1ccccc1)C(N)=O (stereo partly drawn)
11			CC(C)C[C@H](NC(=O)CCCCCCCCCCCCCCC(=O)N[C@@H](CC(N)=O)C(=O)N[C@@H](Cc1ccccc1)C(=O)O)C(=O)N[C@@H](Cc1ccccc1)C(N)=O (HELM PEPTIDE1{L.F.[am]}|PEPTIDE2{N.F}|CHEM1{[O=C(CCCCCCCCCCCCCCC(=O)[*:2])[*:1]]}$PEPTIDE1,CHEM1,1:R1-1:R1|PEPTIDE2,CHEM1,1:R1-1:R2$$$V2.0)
		< 20	NC(=O)[C@H](Cc1ccc(O)c([N+](=O)[O-])c1)NC(=O)[C@H](CC1CCCCC1)NC(=O)/C=C/C(=O)O
12	4.9		CCC(C)[C@H](NC(=O)CCCCCCCCCCCNC(=O)[C@@H](NC(=O)[C@H](Cc1ccccc1)NC(=O)/C=C/C(=O)O)C(N)=O)C(=O)N[C@@H](Cc1ccccc1)C(N)=O (stereo partly drawn)
247	222		CCC(C)[C@H](NC(=O)CCCCCCCCCCCNC(=O)[C@H](Cc1ccc(O)c([N+](=O)[O-])c1)NC(=O)[C@H](CC1CCCCC1)NC(=O)/C=C/C(=O)O)C(=O)N[C@@H](Cc1ccc(O)c([N+](=O)[O-])c1)C(N)=O (stereo partly drawn) (Fumaroyl-[Cha][Tyr(3-NO2)][12Ado][Ile(3ξ)][Tyr(3-NO2)]-NH2)
		< 50	CCC(C)[C@H](NC(=O)CCCCCCCCCCCNC(=O)[C@@H](NC(=O)[C@H](Cc1ccccc1)NC(=O)CCC(=O)O)C(N)=O)C(=O)N[C@@H](Cc1ccccc1)C(N)=O (stereo partly drawn)
		35	CCC(C)[C@H](NC(=O)CCCCCCCCCCCNC(=O)[C@@H](NC(=O)[C@@H](N)Cc1ccccc1)C(N)=O)C(=O)N[C@@H](Cc1ccccc1)C(N)=O (stereo partly drawn)
3.7			CCC(C)[C@H](NC(=O)CCCCCCCCCCCNC(=O)[C@H](Cc1ccc(O)c([N+](=O)[O-])c1)NC(=O)[C@H](CC1CCCCC1)NC(=O)/C=C/C(=O)O)C(N)=O (stereo partly drawn)
14.2			CCC(C)[C@H](NC(=O)CCCCCCCCCCCNC(=O)[C@H](NC(=O)[C@H](Cc1ccccc1)NC(=O)/C=C/C(=O)O)C(N)=O)C(=O)N[C@@H](Cc1ccccc1)C(N)=O (stereo partly drawn)
5.4	3		CC(C)C[C@H](NC(=O)[C@@H](NC(=O)CCCCCCCCCCCCCCC(=O)N[C@@H](CC(N)=O)C(=O)N[C@@H](Cc1ccccc1)C(=O)O)[C@H](C)O)C(=O)N[C@@H](Cc1ccccc1)C(N)=O ({Phe-Asn-C16 diacid}-[aThr]-Leu-Phe-NH2)
361	209		CCC(C)[C@H](NC(=O)CCCCCCCCCCCNC(=O)[C@H](Cc1ccc(O)c([N+](=O)[O-])c1)NC(=O)[C@H](CC1CCCCC1)NC(=O)/C=C/C(=O)O)C(=O)N[C@@H](Cc1cccc2ccccc12)C(N)=O (stereo partly drawn) (Fumaroyl-[Cha][Tyr(3-NO2)][12Ado][Ile(3ξ)][1Nal]-NH2)
18.8			CCC(C)[C@H](NC(=O)CCCCCCCCCCCNC(=O)[C@@H](NC(=O)[C@@H](Cc1ccccc1)NC(=O)/C=C/C(=O)O)C(N)=O)C(=O)N[C@@H](Cc1ccccc1)C(N)=O (stereo partly drawn)
		15	CCC(C)[C@H](NC(=O)CCCCCCCCCCCNC(=O)[C@@H](NC(=O)[C@H](Cc1ccccc1)NC(C)=O)C(N)=O)C(=O)N[C@@H](Cc1ccccc1)C(N)=O (stereo partly drawn)
9.7			CCC(C)[C@H](NC(=O)CCCCCCCCCCCNC(=O)[C@H](NC(=O)[C@@H](Cc1ccccc1)NC(=O)/C=C/C(=O)O)C(N)=O)C(=O)N[C@@H](Cc1ccccc1)C(N)=O (stereo partly drawn)

SMILES	IC50 [1] [µM]	Ki [2] [µM]	inhibition [3] [%]
CC[C@H](C)[C@H](NC(=O)[C@H](CCC(N)=O)NC(=O)[C@@H]1CCCN1C(=O)CCCCCCCCCCCCCCC(=O)N[C@@H](CO)C(=O)N[C@H](C(=O)N[C@@H](CC(C)C)C(=O)N[C@@H](CC(N)=O)C(=O)N[C@@H](Cc1ccccc1)C(=O)O)[C@@H](C)O)C(=O)N[C@H](C(=O)N[C@@H](CC(C)C)C(=O)N[C@@H](Cc1c[nH]c2ccccc12)C(=O)O)[C@H](C)O	0.35	0.22	
NC(=O)CCCCCCCCCCCNC(=O)[C@H](Cc1ccc(O)c([N+](=O)[O-])c1)NC(=O)[C@H](CC1CCCCC1)NC(=O)/C=C/C(=O)O	20		
